Results published in US7332475B2 (priority 2003, dated 2008).

Columns and labels:
[1] = tested on: BVDV(ATCC VR524); experiment: Contact of BVDV with catechin (EGCg) before inoculation of MDBK cells, detection of BVDV-derived DNA by RT-PCR; assay type: cell-based, bovine viral diarrhea virus; settings: 1 mg/ml catechin (EGCg), incubation 6 days
Experimental: The cells were washed three times with PBS, and 5% FBS-containing MEM was added thereto. Incubation was further conducted at 37° C. for 6 days.
After completion of the incubation, a DNA derived from BVDV in the MDBK cells was detected by RT-PCR to confirm whether or not the cells were infected with the virus.

[2] = tested on: BCV Kakegawa strain; experiment: Contact of BCV with catechin (EGCg) before inoculation of MDBK cells, TCID50 by cell denaturation effect; assay type: cell-based, bovine coronavirus; settings: 1 mg/ml EGCg
Experimental: BCV Kakegawa strain with a 50% tissue culture infectious dose (TCID50) of 1.8×10^8/ml and 1 mg/ml of catechin (EGCg: procured from Pharma Foods International Co., Ltd.) were contacted at 25° C. or 37° C. for 30, 60 or 90 minutes respectively, and a 10-fold dilution series was then produced with MEM.
After the cells were washed three times with PBS, 5% FBS-containing MEM was added in an amount of 500 μl/well, and incubation was conducted for 72 hours. Subsequently, the cells infected with the virus were identified with a cell denaturation effect to measure TCID50.

[3] = tested on: bovine coronavirus (BCV) Kakegawa strain and Mebus strain; settings: 1, 5, 10, 20 or 30 mmol/l reduced glutathione; MDBK cells; supernatant at 24, 48, 72 and 96 hours; FIGS. 1 and 2
Experimental: Madin Darby Bovin Kidney (MDBK) cells (ATCC CCL-22) was incubated with a 48-well plate such that the cells were 90% confluent, and then washed twice with a phosphate buffered saline (PBS).
Each of bovine coronavirus (BCV) Kakegawa strain (procured from Nippon Zenyaku Kogyo Co., Ltd.) [2.56 to 256 hemagglutinin (HA) titer/25 μl] and Mebus strain (ATCC VR-874) (0.064 and 0.64 HA titers/25 μl) at various concentrations, these strains being diluted with fetal bovine serum (FBS)-free Minimum Essential Medium (MEM) [Science, 122, 501 (1952)], was inoculated in an amount of 200 μl/well, and incubated at 37° C. for 90 minutes while moving a plate at intervals of 15 minutes. After the culture solution was washed three times with PBS, 500 μl/well of 5% FBS-containing MEM containing 1, 5, 10, 20 or 30 mmol/l of reduced glutathione was added thereto, and the mixture was further incubated at 37° C. During the incubation, 100 μl of the supernatant was recovered in 24, 48, 72 and 96 hours to measure a hemagglutinin (HA) titer.
The HA titer was measured by adding 25 μl of PBS containing 0.03% BSA to each well, adding 25 μl of the BCV culture supernatant thereto by multiple dilution, adding 0.8% mouse immobilization red cells thereto and measuring an agglutination reaction of red cells after 3 hours. […]

Structure (SMILES)	BVDV-derived DNA in MDBK cells by RT-PCR ([1]; contact at 37° C. for 30, 60 or 90 minutes)	BVDV-derived DNA in MDBK cells by RT-PCR ([1]; contact at 37° C. for 90 minutes)	10^(n) TCID50/ml, EGCg-treated virus ([2]; contact 30 min, temperature cell empty (row between 25° C. and 37° C.), control 8.25)	10^(n) TCID50/ml, EGCg-treated virus ([2]; contact at 25° C. for 30 min, control 7.25)	10^(n) TCID50/ml, EGCg-treated virus ([2]; contact at 37° C. for 60 min, control 7.75)	10^(n) TCID50/ml, EGCg-treated virus ([2]; contact at 37° C. for 90 min, control 6.50)	growth of coronavirus (hemagglutinin (HA) titer of culture supernatant) [3]
O=C(O[C@@H]1Cc2c(O)cc(O)cc2O[C@@H]1c1cc(O)c(O)c(O)c1)c1cc(O)c(O)c(O)c1 [EGCg, epigallocatechin gallate]	became undetected depending on the catechin treatment time	not detected at all	4.25 10^(n) TCID50/ml	5.75 10^(n) TCID50/ml	<2.75 10^(n) TCID50/ml	<2.00 10^(n) TCID50/ml	
N[C@@H](CCC(=O)N[C@@H](CS)C(=O)NCC(=O)O)C(=O)O [reduced glutathione, γ-L-Glu-L-Cys-Gly]							effect of inhibiting growth of coronavirus
